Test results reported in patent EP2794556B1, “BIS-(ARYL/HETEROARYL)-METHYLENE COMPOUNDS, PHARMACEUTICAL COMPOSITIONS CONTAINING SAME AND THEIR USE FOR TREATING CANCER” (Gleason, James L., priority 2011, dated 2013).
Blank lines part the entries; values can stand above or below the compound they belong to.

Experiments:
VDR = biological target: T1, VDR (Homo sapiens, UniProt P11473); assay: VDR agonism by induction of CYP24 gene expression (RT/PCR); type: cell-based; details: SCC25 cells; for VDR agonism by induction of CYP24 gene expression: screen at 10 µM, Fig. 1a
T1 construct: endogenous in cells; host or cells: SCC25 human head and neck squamous carcinoma cells
T1 sequence (P11473 1-427): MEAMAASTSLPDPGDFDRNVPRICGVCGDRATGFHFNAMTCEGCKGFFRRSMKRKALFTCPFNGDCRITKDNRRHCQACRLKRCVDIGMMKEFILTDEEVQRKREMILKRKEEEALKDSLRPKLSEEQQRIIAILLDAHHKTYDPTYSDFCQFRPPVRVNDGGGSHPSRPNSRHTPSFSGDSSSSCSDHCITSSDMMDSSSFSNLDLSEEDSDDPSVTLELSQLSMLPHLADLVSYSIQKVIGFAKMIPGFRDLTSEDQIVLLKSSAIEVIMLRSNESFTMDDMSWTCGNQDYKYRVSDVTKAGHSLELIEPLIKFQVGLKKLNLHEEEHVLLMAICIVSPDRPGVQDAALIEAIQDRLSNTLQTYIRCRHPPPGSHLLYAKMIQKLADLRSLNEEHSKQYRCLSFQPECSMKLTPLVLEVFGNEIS
Protocol: Cell culture. Human head and neck squamous carcinoma cell lines SCC4 and SCC45 and mouse HNSCC line AT84 were purchased from American Type Culture Collection (Manassas, VA) and cultured under recommended conditions. Cells were split at 60-70% confluence, as follows: cells were washed with filtered PBS, split with a 5-10 min incubation with 1 ml Trypsin-EDTA (Invitrogen, Carlsbad, CA) in PBS, collected with medium. Following centrifugation, the supernatant was removed. Cell pellets were resuspended with DMEM-F12, and distributed on fresh media-containing dishes. For treatments, AT84 cells were split and 24h later medium was changed to DMEM + 10% charcoal-stripped FBS.
RNA isolation and RT/PCR analysis. […]. Proc. Nat. Acad. Sci. U.S.A. 105, 8250-55. and Lamblin, M.et al Bioorganic & Medicinal Chemistry (2010) 18:4119-4137. After treatment, cells were washed with PBS, homogenized with 1ml TRIzol Reagent (Invitrogen, Carlsbad, CA), kept at room temperature for 2-5 min, collected and kept at -80 °C for at least 1h. After, thawing 0.2 ml chloroform was added. After vigorous mixing and storing for 10min, mixtures were centrifuged (10,000rpm, 15 min, 4 °C) and the upper transparent layer was transferred to a new tube. 0.5 ml isopropanol was added and the new solution was mixed. After centrifuging at 4 °C, the supernatant was discarded and 1ml of 75% ethanol was added. After centrifuging and discarding the supernatant, the pellet was air-dried for 5-10 min, and then dissolved in ddH2O. RNA concentrations were measured using a spectrophotometer, and 1-3µg of RNA were loaded for reverse transcriptase reactions (total volume: 20 µl). 80µl of ddH2O was added to the RT-product, and 1.5µl of that was used as template for the PCR reaction. Reverse transcriptase (Super Script II) was purchased from Invitrogen (Carlsbad, CA). DNA polymerase and dNTP's were ordered from Fermentas (Glen Burnie, MD).
Test compounds (10 µM) were first screened for VDR agonism by analysis of induction of CYP24 gene expression in 1,25D-sensitive human SCC25 cells. […]. Consistent with binding to the VDR, induction of CYP24 by compound JF-B01, compound JF-B53 or compound 16 (JF-B54) was blocked (Fig. 1c). […]

HDAC6 = biological target: T2, HDAC6 (Homo sapiens, UniProt Q9UBN7); assay: Fluorogenic HDAC inhibition assay, purified enzyme
T2 sequence (Q9UBN7 1-1215): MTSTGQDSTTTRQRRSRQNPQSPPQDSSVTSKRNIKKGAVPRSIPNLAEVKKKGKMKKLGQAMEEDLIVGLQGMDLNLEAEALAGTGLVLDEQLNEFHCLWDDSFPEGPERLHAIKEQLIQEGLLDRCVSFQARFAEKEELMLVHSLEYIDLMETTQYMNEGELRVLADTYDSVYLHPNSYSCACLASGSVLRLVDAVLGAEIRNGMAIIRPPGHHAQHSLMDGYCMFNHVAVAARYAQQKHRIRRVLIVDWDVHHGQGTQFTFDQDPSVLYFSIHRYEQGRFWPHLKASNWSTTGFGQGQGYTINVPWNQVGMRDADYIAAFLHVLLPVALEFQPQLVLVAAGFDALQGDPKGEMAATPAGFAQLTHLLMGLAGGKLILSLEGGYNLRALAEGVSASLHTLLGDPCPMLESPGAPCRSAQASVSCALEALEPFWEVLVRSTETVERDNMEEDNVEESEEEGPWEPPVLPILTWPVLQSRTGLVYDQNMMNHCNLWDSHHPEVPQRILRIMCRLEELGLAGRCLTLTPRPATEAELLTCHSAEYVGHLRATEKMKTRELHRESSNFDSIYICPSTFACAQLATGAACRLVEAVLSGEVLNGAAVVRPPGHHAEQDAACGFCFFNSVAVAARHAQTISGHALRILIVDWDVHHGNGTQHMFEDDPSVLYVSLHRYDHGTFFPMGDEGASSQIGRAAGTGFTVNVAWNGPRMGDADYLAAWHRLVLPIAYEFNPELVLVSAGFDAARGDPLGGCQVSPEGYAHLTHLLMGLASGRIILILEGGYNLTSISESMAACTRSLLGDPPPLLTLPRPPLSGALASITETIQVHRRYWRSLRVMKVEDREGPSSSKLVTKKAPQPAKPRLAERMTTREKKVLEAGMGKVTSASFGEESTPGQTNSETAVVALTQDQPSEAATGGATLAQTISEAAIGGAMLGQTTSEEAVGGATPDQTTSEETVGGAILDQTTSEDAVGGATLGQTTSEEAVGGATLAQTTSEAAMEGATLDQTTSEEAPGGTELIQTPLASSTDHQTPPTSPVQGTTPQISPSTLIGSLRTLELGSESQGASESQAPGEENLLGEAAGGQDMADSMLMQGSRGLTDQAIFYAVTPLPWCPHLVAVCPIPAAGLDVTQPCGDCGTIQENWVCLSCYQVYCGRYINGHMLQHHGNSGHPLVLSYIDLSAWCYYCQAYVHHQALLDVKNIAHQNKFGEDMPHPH
Protocol: (§1) Fluorogenic HDAC inhibition assay. Boc-Lys(Ac)-7-amino-4-methylcoumarin (Boc-Lys(Ac)-AMC) was used as substrate for the HDAC assays. […] Trypsin was used to stop the reaction, releasing free AMC. The trypsin solution was prepared as follow: trypsin was dissolved in HDAC buffer to give a concentration of 10 mg/mL. Release of AMC was monitored by measuring the fluorescence at 460 nm (lex = 390 nm) with a microplate reader (SpectraMax Gemini) at 37 °C. The AMC signals were recorded against a blank with buffer, substrate and trypsin but without the enzyme. All experiments were carried out at least in triplicate.
(§2) For standard HDAC assays, 50 µL of HDAC buffer was mixed with 10 µL of diluted enzyme solution in HDAC buffer at room temperature. The HDAC reaction was started by adding 40 µL of substrate solution in HDAC buffer followed by 30 min of incubation with stirring at 37 °C. The reaction was stopped by adding 100 µL of trypsin solution. After a 10 min incubation with stirring at 37 °C, the release of AMC was monitored by measuring the fluorescence. For HDAC inhibition assays, inhibitor diluted in 50 µL of HDAC buffer was mixed with 10 µL of diluted enzyme solution in HDAC buffer at room temperature. The HDAC reaction was started by adding 40 µL of substrate solution in HDAC buffer followed by 30 min of incubation with stirring at 37 °C. The reaction was stopped by adding 100 µL of trypsin solution. After a 10 min incubation with stirring at 37 °C, the release of AMC was monitored by measuring the fluorescence.

SCC4 cells [1] = assay: MTS cell proliferation assay; type: cell-based, human; details: vitamin D resistant SCC4 cells, Figures 7c, 8 and 9
Description: Dose-dependent effects of compounds on cell cycle progression was monitored using a CellTiter 96 Aqueous Non-Radioactive Cell Proliferation Assay Kit (Promega). The assay composed of solutions of a novel tetrazolium compound (MTS) and an electron coupling reagent (phenazine methosulfate; PMS). MTS is reduced by metabolically active cells into a soluble formazan product that absorbs at 490nm. The quantity of formazan product absorbing at 490nm is directly proportional to the number of living cells.

HDAC3 = HDAC3 (Homo sapiens, UniProt O15379); assay: Fluorogenic HDAC inhibition assay, purified enzyme
Protocol: as §1, §2

SCC4 cells [2] = assay: EdU cell growth assay; details: 1,25D-resistant SCC4 cells, Fig. 2e, f
Protocol: EdU cell growth assay. Click-iT EdU Alexa Fluor high-throughput imaging (HCS) assay for cell proliferation. HCS assays were performed on AT84 mouse squamous carcinoma cell line (ATCC) following the manufacturer's instruction (Molecular Probes, Invitrogen). […] All samples were in triplicate.

Sequence of HDAC3 (O15379 whole entry, species assumed): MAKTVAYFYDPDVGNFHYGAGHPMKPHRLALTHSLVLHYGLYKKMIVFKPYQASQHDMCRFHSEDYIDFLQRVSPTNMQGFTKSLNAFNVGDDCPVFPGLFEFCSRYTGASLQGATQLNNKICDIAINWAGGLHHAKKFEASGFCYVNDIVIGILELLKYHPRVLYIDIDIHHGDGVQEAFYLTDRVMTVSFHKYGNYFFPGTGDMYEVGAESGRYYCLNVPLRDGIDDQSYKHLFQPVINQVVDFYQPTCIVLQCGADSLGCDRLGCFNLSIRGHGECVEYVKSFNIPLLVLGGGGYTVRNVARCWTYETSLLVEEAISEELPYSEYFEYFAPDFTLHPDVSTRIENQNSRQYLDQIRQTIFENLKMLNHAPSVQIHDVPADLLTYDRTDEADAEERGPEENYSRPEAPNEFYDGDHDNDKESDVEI
Sequence of HDAC3 (Q9Y618 395-489 partner limits assumed, species assumed): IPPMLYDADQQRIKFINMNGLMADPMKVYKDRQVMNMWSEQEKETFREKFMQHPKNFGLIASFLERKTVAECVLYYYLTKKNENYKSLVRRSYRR

VDR agonism by induction of CYP24 gene expression (VDR): completely inactive
Compound: CCC(CC)(c1ccc(OCCO)c(C)c1)c1ccc(OCC(=O)NO)c(C)c1 [JF-B52, N-Hydroxy-2-(4-(3-(4-(2-hydroxvethoxy)-3-methylphenyl)pentan-3-yl)-2-methylphenoxy)acetamide]

Compound: CCC(CC)(c1ccc(OCC(=O)NO)c(C)c1)c1ccc(OCC(=O)C(C)(C)C)c(C)c1 [JF-B59, 2-(4-(3-(4-(3,3-dimethyl-2-oxobutoxy)-3-methylphenyl)pentan-3-yl)-2-methylphenoxy)-N-hydroxyacetamide]
VDR agonist potency, fold lower compared to JF-B01 (VDR; Fig. 1b): > 10 fold

Compound: CCC(CC)(c1ccc(OCCCCC(=O)NO)cc1)c1ccc(OCCC(C)(C)C)c(C)c1 [DK-405, 5-(4-(3-(4-(3,3-dimethylbutoxy)-3-methylphenyl)pentan-3-yl)phenoxy)-N-hydroxypentanamide]
IC50 (HDAC6): 1.97 µM

Compound: CCC(CC)(c1ccc(OCC(O)C(C)(C)C)c(C)c1)c1cn(C)c2cc(CCC(=O)NO)ccc12 (stereo not drawn) [DK-234, N-hydroxy-3-(3-(3-(4-(2-hydroxy-3.3-dimethylbutoxy)-3-methylphenyl)pentan-3-yl)-1-methyl-1H-indol-6-yl)propanamide]
antiproliferative potency (SCC4 cells [1]): low micromolar potency

Compound: CCC(CC)(c1ccc(OCCCCCC(=O)NO)cc1)c1ccc(OCC(O)C(C)(C)C)c(C)c1 (stereo not drawn) [DK-367, N-hydroxy-6-(4-(3-(4-(2-hydroxy-3,3-dimethylbutoxy)-3-methylphenyl)pentan-3-yl)phenoxy)hexanamide]
antiproliferative potency (SCC4 cells [1]): low micromolar potency
IC50 (HDAC6): 1.57 µM

Compound: CCC(CC)(c1ccc(OCC(O)C(C)(C)C)c(C)c1)c1cc(C)c(CCC(=O)NO)s1 (stereo not drawn) [DK-178, N-hydroxy-3-(5-(3-(4-(2-hydroxy-3,3-dimethylbutoxy)-3-methylphenyl)pentan-3-yl)-3-methylthiophen-2-yl)propanamide]
antiproliferative potency (SCC4 cells [1]): low micromolar potency
IC50 (HDAC6): 24.9 µM
IC50 (HDAC3): 47.3 µM

IC50 (HDAC6): 36.1 µM
IC50 (HDAC3): 45.1 µM
Compound: CCC(CC)(c1ccc(CCC(=O)NO)c(C)c1)c1ccc(OC[C@H](O)C(C)(C)C)c(C)c1 [JFD-50]
antiproliferative potency (SCC4 cells [1]): low micromolar potency

Compound: CCC(CC)(c1ccc(OCCCCCCC(=O)NO)c(C)c1)c1ccc(OCC(O)C(C)(C)C)c(C)c1 (stereo not drawn) [DK-347, N-hydroxy-7-(4-(3-(4-(2-hydroxy-3,3-dimethylbutoxy)-3-methylphenyl)pentan-3-yl)-2-methylphenoxy)heptanamide]
IC50 (HDAC6): 3.94 µM

Compound: CCC(CC)(c1ccc(OCC(O)CCC(=O)NO)c(C)c1)c1ccc(OCC(O)C(C)(C)C)c(C)c1 (stereo not drawn) [DK-305, N,4-dihydroxy-5-(4-(3-(4-(2-hydroxy-3,3-dimethylbutoxy)-3-methylphenyl)pentan-3-yl)-2-methylphenoxy)pentanamide]
IC50 (HDAC6): 29.2 µM

IC50 (HDAC3): 30.5 µM
Compound: CCC(CC)(c1ccc(OCC(=O)NO)c(C)c1)c1cc(C)c(CCC(O)C(C)(C)C)s1 (stereo not drawn) [DK-201, N-hydroxy-2-(4-(3-(5-(3-hydroxy-4,4-dimethylpentyl)-4-methylthiophen-2-yl)pentan-3-yl)-2-methylphenoxy)acetamide]

Compound: CCC(CC)(c1ccc(OCC(O)C(C)(C)C)c(C)c1)c1ccc(C(=O)NCCCCCCC(=O)NO)c(C)c1 (stereo not drawn) [DK-362, 4-(3-(4-(2-hydroxy-3,3-dimethylbutoxy)-3-methylphenyl)pentan-3-yl)-N-(7-(hydroxyamino)-7-oxoheptyl)-2-methylbenzamide]
IC50 (HDAC6): 1.08 µM

IC50 (HDAC6): 47.1 µM
IC50 (HDAC3): 9.83 µM
Compound: CCC(CC)(c1ccc(OCCCC(=O)NO)c(C)c1)c1ccc(OC[C@H](O)C(C)(C)C)c(C)c1 [JFD-15]
antiproliferative potency (SCC4 cells [1]): low micromolar potency

Compound: CCC(CC)(c1ccc(C(=O)NCCCCCC(=O)NO)cc1)c1ccc(OCC(O)C(C)(C)C)c(C)c1 (stereo not drawn) [DK-406, 4-(3-(4-(2-hydroxy-3,3-dimethylbutoxy)-3-methylphenyl)pentan-3-yl)-N-(6-(hydroxyamino)-6-oxohexyl)benzamide]
IC50 (HDAC6): 0.557 µM

Compound: CCC(CC)(c1ccc(OCCCCCC(=O)NO)c(C)c1)c1ccc(OCC(O)C(C)(C)C)c(C)c1 (stereo not drawn) [DK-319, N-hydroxy-6-(4-(3-(4-(2-hydroxy-3,3-dimethylbutoxy)-3-methylphenyl)pentan-3-yl)-2-methylphenoxy)hexanamide]
IC50 (HDAC6): 2.65 µM

Compound: CCC(CC)(c1ccc(OCC(O)C(C)(C)C)c(C)c1)c1ccc(C(=O)NCCCCCC(=O)NO)c(C)c1 (stereo not drawn) [DK-361, 4-(3-(4-(2-hydroxy-3,3-dimethylbutoxy)-3-methylphenyl)pentan-3-yl)-N-(6-(hydroxyamino)-6-oxohexyl)-2-methylbenzamide]
IC50 (HDAC6): 3.4 µM

Compound: CCC(CC)(c1ccc(OCCCCC(=O)NO)cc1)c1ccc(OCC(O)C(C)(C)C)c(C)c1 (stereo not drawn) [DK-381, N-hydroxy-5-(4-(3-(4-(2-hydroxy-3,3-dimethylbutoxy)-3-methylphenyl)pentan-3-yl)phenoxy)pentanamide]
IC50 (HDAC6): 3.13 µM

VDR agonist activity and potency, induction of CYP24 gene expression (VDR; Fig. 1b, 1d): some agonist activity
Compound: CCC(CC)(c1ccc(OCC(=O)O)c(C)c1)c1ccc(OCC(=O)C(C)(C)C)c(C)c1 [JF-C11]
inhibition of proliferation, EdU incorporation (SCC4 cells [2]): failed to block SCC4 proliferation

Compound: CCC(CC)(c1ccc(OCCCCC(=O)NO)c(C)c1)c1ccc(OCC(O)C(C)(C)C)c(C)c1 (stereo not drawn) [DK-320, N-hydroxy-5-(4-(3-(4-(2-hydroxy-3,3-dimethylbutoxy)-3-methylphenyl)pentan-3-yl)-2-methylphenoxy)pentanamide]
IC50 (HDAC6): 5.03 µM

VDR agonism by induction of CYP24 gene expression (VDR): completely inactive
Compound: CCC(CC)(c1ccc(OCC(=O)NO)c(C)c1)c1ccc(OCC(O)CO)c(C)c1 (stereo not drawn) [JF-B40]
